Earlier results in publication PMC8624105 (Viruses, 2021).

System: NHERF1 PDZ domains
Details: PDZ/PBM interaction

In the case of “ACE2: glycosylated integral membrane protein of 805 residues”, the interaction is listed as “shown to interact with NHERF1 PDZ domains”.
